From patent US20260285850A1, “SUBSTITUTED OXAZOLIDINONES AND IMIDAZOLINONES AS HERBICIDES” (FMC CORPORATION, priority 2023, published 2026)

Tests used:
Type in all cases: in vivo
[1] = test system: blackgrass (Alopecurus myosuroides); experiment: Test A preemergence soil spray, visual injury rating 0-100; details: 1000 g ai/ha, 10 days, 0 = no effect, 100 = complete control
In short: (§1)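 Compound in a non-phytotoxic, surfactant-containing solvent is applied either as a directed soil spray before seedlings emerge or onto emerged plants 2-10 cm tall; pots hold a loam-sand blend. Plants grow 10 days under greenhouse conditions and are rated by eye against untreated controls (0 no effect, 100 complete control).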

[2] = test system: foxtail, giant (giant foxtail, Setaria faberi); experiment: as above; details: 1000 g ai/ha, 10 days, 0 = no effect, 100 = complete control
In short: as §1

[3] = test system: goosegrass (Eleusine indica); experiment: as above; details: 1000 g ai/ha, 10 days, 0 = no effect, 100 = complete control
In short: as §1

kochia (Bassia scoparia) [4] = experiment: as above; details: 1000 g ai/ha, 10 days, 0 = no effect, 100 = complete control
In short: as §1

[5] = test system: palmer (palmer amaranth, palmer pigweed, Amaranthus palmeri); experiment: as above; details: 1000 g ai/ha, 10 days, 0 = no effect, 100 = complete control
In short: as §1

[6] = test system: ragweed (common ragweed, Ambrosia artemisiifolia); experiment: as above; details: 1000 g ai/ha, 10 days, 0 = no effect, 100 = complete control
In short: as §1

[7] = test system: ryegrass, Italian (italian ryegrass, Lolium multiflorum); experiment: as above; details: 1000 g ai/ha, 10 days, 0 = no effect, 100 = complete control
In short: as §1

[8] = test system: blackgrass (Alopecurus myosuroides); experiment: Test A postemergence application, visual injury rating 0-100; details: Postemergence, 1000 g ai/ha, 0 to 100 scale, 10 days
In short: as §1

[9] = test system: foxtail, giant (giant foxtail, Setaria faberi); experiment: as above; details: 1000 g ai/ha, 0 to 100 scale, 10 days
In short: as §1

[10] = test system: galium (catchweed bedstraw, Galium aparine); experiment: as above; details: Postemergence, 1000 g ai/ha, 0 to 100 scale, 10 days
In short: as §1

[11] = test system: goosegrass (Eleusine indica); experiment: as above; details: 1000 g ai/ha, 0 to 100 scale, 10 days
In short: as §1

[12] = test system: horseweed (Erigeron canadensis); experiment: as above; details: Postemergence, 1000 g ai/ha, 0 to 100 scale, 10 days
In short: as §1

kochia (Bassia scoparia) [13] = experiment: as above; details: Postemergence, 1000 g ai/ha, 0 to 100 scale, 10 days
In short: as §1

[14] = test system: palmer (palmer amaranth, palmer pigweed, Amaranthus palmeri); experiment: as above; details: Postemergence, 1000 g ai/ha, 0 to 100 scale, 10 days
In short: as §1

[15] = test system: ragweed (common ragweed, Ambrosia artemisiifolia); experiment: as above; details: Postemergence, 1000 g ai/ha, 0 to 100 scale, 10 days
In short: as §1

[16] = test system: ryegrass, Italian (italian ryegrass, Lolium multiflorum); experiment: as above; details: Postemergence, 1000 g ai/ha, 0 to 100 scale, 10 days
In short: as §1

[17] = test system: barnyardgrass (Echinochloa crusgalli); experiment: Test B flooded paddy test, visual plant response rating 0-100; details: 250 g ai/ha, Flood, applied to paddy water, evaluated after 13 days
In short: (§2)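 Compounds applied to standing paddy water (3 cm above soil, maintained for the test duration) on 2-leaf-stage plants; visual rating vs controls at 13 days, greenhouse.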

[18] = test system: ducksalad (Heteranthera limosa); experiment: as above; details: 250 g ai/ha, Flood, applied to paddy water, evaluated after 13 days
In short: as §2

rice (Oryza sativa) = experiment: as above; details: 250 g ai/ha, Flood, applied to paddy water, evaluated after 13 days
In short: as §2

[19] = test system: sedge, umbrella (small-flower umbrella sedge, Cyperus difformis); experiment: as above; details: 250 g ai/ha, Flood, applied to paddy water, evaluated after 13 days
In short: as §2

SMILES	Blackgrass plant response rating (0 to 100 scale) [1]	Foxtail, Giant plant response rating (0 to 100 scale) [2]	Goosegrass plant response rating (0 to 100 scale) [3]	Kochia plant response rating (0 to 100 scale) (kochia (Bassia scoparia) [4])	Amaranth, Palmer / Pigweed, Palmer plant response rating (0 to 100 scale) [5]	Ragweed plant response rating (0 to 100 scale) [6]	Ryegrass, Italian plant response rating (0 to 100 scale) [7]	Blackgrass plant response rating [8]	Foxtail, Giant plant response rating [9]	Galium plant response rating [10]	Goosegrass plant response rating [11]	Horseweed plant response rating [12]	Kochia plant response rating (kochia (Bassia scoparia) [13])	Amaranth, Palmer plant response rating [14]	Ragweed plant response rating [15]	Ryegrass, Italian plant response rating [16]	Plant response rating, Barnyardgrass (0 to 100 scale, 0 is no effect and 100 is complete control) [17]	Plant response rating, Ducksalad (0 to 100 scale, 0 is no effect and 100 is complete control) [18]	Plant response rating, Rice (0 to 100 scale, 0 is no effect and 100 is complete control) (rice (Oryza sativa))	Plant response rating, Sedge, Umbrella (0 to 100 scale, 0 is no effect and 100 is complete control) [19]
CNC(=O)C1C=CC(NC(=O)C2(C)CN(c3cc(F)cc(F)c3)C(=O)O2)C1 (stereo not shown) [Compound 26]	100	100	100	90	100	90	100	90	90	70	90	70	80	90	50	70	45	95	35	95
CCOC(=O)C1C=CC(NC(=O)C2(C)CN(c3cc(F)cc(F)c3)C(=O)O2)C1 (stereo not shown) [Compound 28]	90	100	100	100	100	80	100	100	90	70	90	80	80	90	70	80	85	75	70	65
